Activity calls are given as the source filed them.
Experiments:
[1] = target: T1, fMet-Leu-Phe receptor (Homo sapiens, UniProt P21462); experiment: formyl peptide receptor binders – dose response (AID 519); format: functional
T1 sequence (P21462 whole entry): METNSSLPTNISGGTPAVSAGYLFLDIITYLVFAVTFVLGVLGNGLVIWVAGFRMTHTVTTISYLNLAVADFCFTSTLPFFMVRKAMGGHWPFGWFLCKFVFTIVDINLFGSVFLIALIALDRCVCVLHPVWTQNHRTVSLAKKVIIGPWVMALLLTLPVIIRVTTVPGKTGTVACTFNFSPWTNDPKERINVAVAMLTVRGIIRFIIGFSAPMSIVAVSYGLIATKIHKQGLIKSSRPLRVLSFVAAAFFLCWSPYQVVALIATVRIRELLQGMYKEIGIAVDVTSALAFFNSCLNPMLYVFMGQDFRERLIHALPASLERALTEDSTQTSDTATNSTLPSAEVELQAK

[2] = target: T2, Histone-lysine N-methyltransferase NSD2 (Homo sapiens, UniProt O96028); format: biochemical
T2 sequence (O96028 whole entry): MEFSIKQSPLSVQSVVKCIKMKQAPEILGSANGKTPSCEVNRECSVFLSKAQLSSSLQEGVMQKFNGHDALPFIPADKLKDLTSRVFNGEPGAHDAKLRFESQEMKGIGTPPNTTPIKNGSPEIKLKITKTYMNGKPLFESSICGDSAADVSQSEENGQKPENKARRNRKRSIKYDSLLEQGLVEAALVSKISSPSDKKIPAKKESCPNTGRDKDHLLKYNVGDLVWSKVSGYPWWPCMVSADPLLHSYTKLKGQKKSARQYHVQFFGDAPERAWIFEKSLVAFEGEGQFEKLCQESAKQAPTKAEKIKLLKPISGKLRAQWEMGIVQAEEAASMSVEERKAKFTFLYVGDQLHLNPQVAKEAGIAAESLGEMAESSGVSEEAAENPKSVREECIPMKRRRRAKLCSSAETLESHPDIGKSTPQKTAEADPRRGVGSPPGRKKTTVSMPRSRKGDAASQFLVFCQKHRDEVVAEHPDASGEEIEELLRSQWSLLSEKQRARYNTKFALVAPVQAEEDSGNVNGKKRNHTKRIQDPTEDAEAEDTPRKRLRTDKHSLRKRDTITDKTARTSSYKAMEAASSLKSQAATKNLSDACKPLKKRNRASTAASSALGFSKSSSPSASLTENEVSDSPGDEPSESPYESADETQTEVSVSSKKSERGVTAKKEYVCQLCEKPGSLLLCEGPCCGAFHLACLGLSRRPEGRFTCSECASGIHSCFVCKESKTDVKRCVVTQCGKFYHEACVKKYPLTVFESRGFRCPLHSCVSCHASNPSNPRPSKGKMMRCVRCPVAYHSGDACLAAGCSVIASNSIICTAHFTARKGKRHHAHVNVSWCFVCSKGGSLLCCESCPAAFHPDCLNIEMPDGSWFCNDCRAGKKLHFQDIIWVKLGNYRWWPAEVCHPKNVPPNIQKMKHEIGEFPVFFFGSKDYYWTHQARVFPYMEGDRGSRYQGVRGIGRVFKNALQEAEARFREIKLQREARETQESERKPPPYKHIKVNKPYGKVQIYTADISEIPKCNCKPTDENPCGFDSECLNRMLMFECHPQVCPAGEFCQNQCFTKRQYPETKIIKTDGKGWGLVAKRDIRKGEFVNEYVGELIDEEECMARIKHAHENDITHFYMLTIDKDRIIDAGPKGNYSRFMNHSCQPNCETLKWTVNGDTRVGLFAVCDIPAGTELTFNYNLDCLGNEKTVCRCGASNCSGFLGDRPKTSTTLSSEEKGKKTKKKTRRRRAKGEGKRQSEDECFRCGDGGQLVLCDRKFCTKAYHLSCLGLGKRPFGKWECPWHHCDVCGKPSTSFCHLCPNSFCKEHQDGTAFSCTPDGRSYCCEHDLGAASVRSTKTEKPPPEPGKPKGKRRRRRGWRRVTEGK

[3] = target: T3, RNA-binding protein pos-1 (Caenorhabditis elegans, UniProt G5EF15); experiment: disruptors of C. elegans POS-1 RNA interaction – biochemical, fluorescence polarization, dose response (AID 1964);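 note: purified POS-1 fused to maltose binding protein made in E. coli; potency of compounds blocking POS-1 binding to fluorescent RNA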
T3 sequence (G5EF15 whole entry): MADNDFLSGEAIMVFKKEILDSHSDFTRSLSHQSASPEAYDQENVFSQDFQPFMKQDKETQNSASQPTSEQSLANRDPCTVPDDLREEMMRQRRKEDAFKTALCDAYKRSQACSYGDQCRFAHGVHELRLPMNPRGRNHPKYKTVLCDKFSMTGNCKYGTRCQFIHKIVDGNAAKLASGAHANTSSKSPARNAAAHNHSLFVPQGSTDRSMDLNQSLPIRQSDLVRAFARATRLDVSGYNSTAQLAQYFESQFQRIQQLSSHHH

[4] = target: T4, Zinc finger protein mex-5 (Caenorhabditis elegans, UniProt Q9XUB2); experiment: potency of MEX-5 RNA-binding blockers – biochemical, C. elegans, fluorescence polarization, dose response (AID 1960)
T4 sequence (Q9XUB2 whole entry): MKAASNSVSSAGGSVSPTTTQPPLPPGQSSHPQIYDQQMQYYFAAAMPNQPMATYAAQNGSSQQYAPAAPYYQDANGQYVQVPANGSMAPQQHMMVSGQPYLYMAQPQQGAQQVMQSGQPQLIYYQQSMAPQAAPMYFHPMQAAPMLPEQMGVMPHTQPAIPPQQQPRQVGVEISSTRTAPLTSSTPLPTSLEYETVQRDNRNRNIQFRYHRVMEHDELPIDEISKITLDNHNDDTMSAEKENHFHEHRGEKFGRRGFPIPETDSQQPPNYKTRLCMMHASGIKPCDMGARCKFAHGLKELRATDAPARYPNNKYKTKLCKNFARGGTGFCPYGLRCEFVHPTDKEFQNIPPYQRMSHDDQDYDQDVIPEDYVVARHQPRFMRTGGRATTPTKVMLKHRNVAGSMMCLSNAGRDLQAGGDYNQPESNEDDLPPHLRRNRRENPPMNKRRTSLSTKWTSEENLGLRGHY

[5] = target: T5, Endoribonuclease toxin MazF (Escherichia coli K-12, UniProt P0AE70); experiment: activation of MazEF endoribonuclease cleavage – biochemical, fluorescence, single-stranded RNA substrate, uHTS hits, dose response (AID 588481); format: functional
T5 sequence (P0AE70 whole entry): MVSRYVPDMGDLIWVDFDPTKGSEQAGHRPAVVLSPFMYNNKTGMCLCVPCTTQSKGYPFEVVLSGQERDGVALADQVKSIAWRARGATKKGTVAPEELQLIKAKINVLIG

[6] = target: T5, Endoribonuclease toxin MazF; experiment: substrate-only fluorescence increase artefacts – biochemical, single-stranded RNase substrate, counter-screen for MazEF activator project, dose response (AID 588502); format: functional
[7] = target: T6, Corticotropin-releasing factor receptor 2/Corticotropin-releasing factor-binding protein (Homo sapiens, UniProt P24387+Q13324); experiment: activators of CRF receptor 2 with binding protein – uHTS hits, confirmation (AID 602473); format: functional; conditions: read-out: EC50_Mean
T6 sequence (Q13324 whole entry): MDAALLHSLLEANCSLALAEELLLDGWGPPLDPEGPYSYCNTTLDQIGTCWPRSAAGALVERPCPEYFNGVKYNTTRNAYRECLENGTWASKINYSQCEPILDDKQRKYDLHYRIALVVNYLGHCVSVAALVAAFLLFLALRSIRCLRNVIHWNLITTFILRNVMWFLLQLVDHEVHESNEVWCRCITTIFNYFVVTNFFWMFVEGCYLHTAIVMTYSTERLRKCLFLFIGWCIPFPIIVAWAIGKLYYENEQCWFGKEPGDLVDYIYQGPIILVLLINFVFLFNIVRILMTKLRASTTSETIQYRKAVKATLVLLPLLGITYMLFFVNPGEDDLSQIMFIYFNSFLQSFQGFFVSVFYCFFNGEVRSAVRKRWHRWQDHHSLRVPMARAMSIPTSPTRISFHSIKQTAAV
T6 sequence (P24387 whole entry): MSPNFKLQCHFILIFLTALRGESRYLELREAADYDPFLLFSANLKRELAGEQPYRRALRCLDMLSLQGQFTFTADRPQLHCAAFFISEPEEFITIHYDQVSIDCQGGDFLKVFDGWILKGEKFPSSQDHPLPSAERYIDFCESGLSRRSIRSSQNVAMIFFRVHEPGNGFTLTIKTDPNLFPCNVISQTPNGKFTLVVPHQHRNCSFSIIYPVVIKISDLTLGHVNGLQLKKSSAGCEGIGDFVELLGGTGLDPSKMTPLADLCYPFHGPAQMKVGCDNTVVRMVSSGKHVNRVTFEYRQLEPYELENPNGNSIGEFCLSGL

[8] = target: Cytochrome P450 2C19 (Homo sapiens, UniProt P33261); experiment: Cytochrome panel assay with activity outcomes. Panel member name: p450-cyp2c19 Compounds with AC50 equal or less than 10 uM are considered active; format: functional; conditions: read-out: AC50
Chain of Cytochrome P450 2C19 (P33261 whole entry): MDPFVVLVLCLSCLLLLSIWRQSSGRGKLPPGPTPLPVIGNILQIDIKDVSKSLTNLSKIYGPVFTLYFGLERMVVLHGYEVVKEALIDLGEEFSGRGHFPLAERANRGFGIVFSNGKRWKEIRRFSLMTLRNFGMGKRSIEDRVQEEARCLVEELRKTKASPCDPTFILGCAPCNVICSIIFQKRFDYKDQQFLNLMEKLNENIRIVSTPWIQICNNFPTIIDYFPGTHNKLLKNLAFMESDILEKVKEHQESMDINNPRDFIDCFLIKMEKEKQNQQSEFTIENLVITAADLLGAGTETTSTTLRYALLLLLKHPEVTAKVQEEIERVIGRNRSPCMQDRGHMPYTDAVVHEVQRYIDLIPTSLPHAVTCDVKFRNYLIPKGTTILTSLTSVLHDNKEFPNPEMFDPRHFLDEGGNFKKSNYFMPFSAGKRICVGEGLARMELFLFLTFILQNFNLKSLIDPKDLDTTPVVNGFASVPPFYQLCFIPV

[9] = target: Cytochrome P450 2C9 (Homo sapiens, UniProt P11712)
Chain of Cytochrome P450 2C9 (P11712 whole entry): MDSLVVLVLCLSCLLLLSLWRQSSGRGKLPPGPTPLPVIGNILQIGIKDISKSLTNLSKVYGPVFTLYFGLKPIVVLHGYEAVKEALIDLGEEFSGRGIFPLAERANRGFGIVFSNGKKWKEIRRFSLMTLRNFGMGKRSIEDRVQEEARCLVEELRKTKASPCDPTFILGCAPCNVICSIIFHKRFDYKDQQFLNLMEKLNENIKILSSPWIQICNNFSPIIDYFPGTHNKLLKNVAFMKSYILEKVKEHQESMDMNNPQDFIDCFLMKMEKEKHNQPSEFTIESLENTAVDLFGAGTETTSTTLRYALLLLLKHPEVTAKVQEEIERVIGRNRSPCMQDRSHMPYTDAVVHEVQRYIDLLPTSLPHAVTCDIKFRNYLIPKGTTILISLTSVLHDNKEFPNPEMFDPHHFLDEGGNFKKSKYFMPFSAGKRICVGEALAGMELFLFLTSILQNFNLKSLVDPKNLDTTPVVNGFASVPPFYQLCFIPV

[10] = system: Streptococcus sp. 'group A'; experiment: Streptococcus pyogenes SK(-)GAS viability under kanamycin – luminescence, BacTiterGlo, confirmation, counter-screen for streptokinase expression inhibitor project, dose response (AID 1900); format: functional, organism-based
[11] = target: T7, Streptokinase A (Streptococcus pyogenes serotype M1, UniProt P10520); experiment: viability-normalized secreted streptokinase activity reduction – plasminogen activation absorbance, OD405, dose response (AID 1914); format: functional, Streptococcus pyogenes M1 GAS;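 note: secreted streptokinase activity via plasminogen activation per viability signal from cell pellet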
T7 sequence (P10520 whole entry): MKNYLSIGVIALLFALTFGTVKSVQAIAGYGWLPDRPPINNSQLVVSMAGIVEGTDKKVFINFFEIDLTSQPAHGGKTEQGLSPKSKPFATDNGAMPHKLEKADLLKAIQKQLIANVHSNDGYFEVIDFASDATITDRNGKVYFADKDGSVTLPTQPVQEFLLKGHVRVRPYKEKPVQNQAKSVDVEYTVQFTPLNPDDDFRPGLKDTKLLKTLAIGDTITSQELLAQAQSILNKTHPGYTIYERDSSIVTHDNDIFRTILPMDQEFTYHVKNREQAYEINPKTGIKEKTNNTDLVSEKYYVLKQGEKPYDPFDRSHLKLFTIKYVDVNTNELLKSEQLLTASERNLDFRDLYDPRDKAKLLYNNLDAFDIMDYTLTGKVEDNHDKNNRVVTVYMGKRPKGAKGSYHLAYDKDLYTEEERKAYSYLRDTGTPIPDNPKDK

[12] = system: Streptococcus; experiment: GAS UMAA2166 growth inhibition – luminescence, BacTiterGlo, counter-screen for streptokinase expression inhibitor project, dose response (AID 1915); format: functional, organism-based;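 note: potency for reduction of bacterial viability or growth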
[13] = Luminescence Cell-Based Dose Retest to Confirm Inhibitors of Cancer Stem Cells. [Related pubchem assays (depositor defined):AID2717, AID2721]; format: functional; conditions: Homo sapiens
[14] = system: H9c2; experiment: cells; format: functional, cell-based; conditions: Rattus norvegicus, H9c2, Myocardium;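 note: confirmatory concentration-response retest of ultra-high-throughput screening hits for modulation of myocardial damage; cell death induced by hydrogen peroxide oxidative stress; compound pretreatment for 60 min then peroxide exposure for 2 h; potency is for protecting the cells against peroxide damage rather than for killing them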
[15] = target: Paired box protein Pax-8 (Homo sapiens, UniProt Q06710); experiment: PAX8 transcriptional activity inhibition in RMG-I – RMG-I cells, luciferase, cherry-pick, dose response (AID 687027); format: functional, cell-based;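 note: luciferase reporter driven by Pax8 target thyroperoxidase promoter measured by SteadyGlo luminescence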
Chain of Paired box protein Pax-8 (Q06710 whole entry): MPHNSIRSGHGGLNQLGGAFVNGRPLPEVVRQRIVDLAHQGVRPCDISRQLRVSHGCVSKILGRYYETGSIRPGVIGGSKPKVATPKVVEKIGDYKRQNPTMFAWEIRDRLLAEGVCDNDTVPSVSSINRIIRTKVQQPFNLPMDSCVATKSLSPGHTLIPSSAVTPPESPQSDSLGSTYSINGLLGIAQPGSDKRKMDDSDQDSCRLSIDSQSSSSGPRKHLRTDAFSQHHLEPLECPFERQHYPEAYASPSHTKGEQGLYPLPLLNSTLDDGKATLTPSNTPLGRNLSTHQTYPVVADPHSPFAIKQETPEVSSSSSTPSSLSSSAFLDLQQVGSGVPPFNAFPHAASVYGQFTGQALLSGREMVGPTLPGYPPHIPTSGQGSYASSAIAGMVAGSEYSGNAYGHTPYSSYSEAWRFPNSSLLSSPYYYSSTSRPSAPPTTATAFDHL

[16] = general cell-killing toxicity readout – plate reader, dry powder samples, cytotoxicity control for PAX8 inhibitor project, dose response (AID 743021); format: functional, cell-based

With CCOC(=O)N1CCC(NC(=O)c2cc(C(=O)Nc3ccc(OC)c(OC)c3)ccc2CO)CC1 as the molecule, how does the Ki [1] read?
The Ki was > 66.7 µM (inactive).

With O=C(NCC1CC1)c1ccc(-n2ccnc2)c2ccoc12 as the molecule, how does the AC50 [2] read?
Its AC50 is 14.1 µM (active).

Which results are given for Cn1cc(C=C2C(=O)NC(=O)NC2=O)c2ccccc21?
EC50 [3]: 6.99 µM (inconclusive); EC50 [4]: 5.82 µM (inconclusive); EC50 [5]: > 99 µM (inactive); EC50 [6]: 21.1 µM (inactive); EC50 [7]: 24.1 µM (active)

With Cc1nc2c(C)cccn2c1C(=O)C1=C(O)C(=O)N(CCN2CCOCC2)C1c1cccs1 (stereo not drawn) as the molecule, how does the AC50 [8] read?
Its AC50 is 8.91 µM (inconclusive).

What about the Ki [1] of the same molecule?
Its Ki is > 66.7 µM (inactive).

And the AC50 [9]?
The AC50 was 10 µM (inconclusive).

Which results are given for O=C(Nc1cccc(NC(=O)c2ccc([N+](=O)[O-])o2)c1)c1ccco1?
EC50 [10]: 7.34 µM (active); EC50 [11]: 111 µM (active); EC50 [12]: 22.7 µM (active); AC50 [13]: 2.95 µM (active); IC50 [14]: > 79 µM (inactive); AC50 [15]: 5.2 µM (active); AC50 [16]: 66.2 µM (active)

With COc1ccccc1Oc1c(C)oc2c(CN(C)C)c(O)ccc2c1=O as the molecule, how does the Ki [1] read?
Its Ki is > 66.7 µM (inactive).
